Experimental data: US20250250292A1, “DELIVERY SYSTEM TO TARGET GRAM-NEGATIVE BACTERIA” (priority 2022, published 2025)
In brackets after ≈: the same amount, converted by molar mass. Where two headings read alike, the source gives them in different places.

Legend:
MRC5 fibroblast cells = assay: Cel Titer Glo cytotoxicity in MRC5 cells; format: cell-based; conditions: Homo sapiens
Method: In order to facilitate development of the TPP containing antibiotics, a series of TPP linkers were prepared and tested for their toxicity in MRC5 cells. This library of linkers are shown below: The toxicity of these linkers in MRC5 cells after a 72 hour incubation.

Acinetobacter baumannii [1] = conditions: McCarthy, 2021; cited from earlier work
E. faecalis = conditions: McCarthy, 2021; cited from earlier work
Pseudomonas aeruginosa [2] = conditions: McCarthy, 2021; cited from earlier work
Citrobacter freundii = assay: Antibacterial in vitro activity (MIC); format: cell-based
Method: (§1) These compounds were tested in an E. coli and Klebsiella strain to determine the change in OD600 as a function of concentration (FIG. 5, E. coli; FIG. 6, Klebsiella). The antibacterial activity of the compounds was further analyzed and activity was determine a variety of different bacterial strains.

Enterobacter cloacae = assay: Antibacterial in vitro activity (MIC); format: cell-based
Method: as §1

Haemophilus influenzae = assay: Antibacterial in vitro activity (MIC); format: cell-based
Method: as §1

Salmonella typhimurium = assay: Antibacterial in vitro activity (MIC); format: cell-based; conditions: Salmonella enterica, ATCC 13311 / TYPHIMURIUM; isolate D0109, ATCC13311
Method: as §1

Streptococcus pneumoniae = assay: Antibacterial in vitro activity (MIC); format: cell-based
Method: as §1

Streptococcus agalactiae = assay: Antibacterial in vitro activity (MIC); format: cell-based; conditions: isolate B0790, Clinical isolate
Method: as §1

Proteus mirabilis = assay: Antibacterial in vitro activity (MIC); format: cell-based
Method: as §1

Klebsiella pneumoniae = assay: Antibacterial in vitro activity (MIC); format: cell-based
Method: as §1

Acinetobacter baumannii [3] = assay: Antibacterial in vitro activity (MIC); format: cell-based
Method: as §1

Streptococcus pyogenes = assay: Antibacterial in vitro activity (MIC); format: cell-based; conditions: isolate B0780, Clinical isolate
Method: as §1

Enterococcus faecium = assay: Antibacterial in vitro activity (MIC); format: cell-based; conditions: isolate D0459, Clinical isolate
Method: as §1

Pseudomonas aeruginosa [4] = assay: Antibacterial in vitro activity (MIC); format: cell-based
Method: as §1

Staphylococcus aureus = assay: Antibacterial in vitro activity (MIC); format: cell-based
Method: as §1

Escherichia coli = assay: Antibacterial in vitro activity (MIC); format: cell-based
Method: as §1

[5] = Table 1, TPP+ linkers, MRC5 cells, 72-hour incubation

Q: With Fc1cc(C[P+](c2ccccc2)(c2ccccc2)c2ccccc2)ccc1Cl [BI-182] as the compound, how does the IC50 (MRC5 fibroblast cells; [5]) read?
A: The IC50 was > 90 µM.

Q: For C=C[C@]1(C)C[C@@H](OC(=O)CS[C@@H]2CC[C@@H](N)C[C@H]2O)[C@]2(C)[C@H](C)CC[C@]3(CCC(=O)[C@H]32)[C@@H](C)[C@@H]1O [Lefamulin], which “antibacterial activity” value (Acinetobacter baumannii [1]) is on record?
A: Its value is “lacks activity”.

Q: And the “antibacterial activity” value (E. faecalis)?
A: The value was “lacks activity”.

Q: And the “antibacterial activity” value (Pseudomonas aeruginosa [2])?
A: The value was “lacks activity”.

Q: Which IC50 (MRC5 fibroblast cells; [5]) does the source give for Oc1ccc(C[P+](c2ccccc2)(c2ccccc2)c2ccccc2)cc1 [AP-8-109] here?
A: Its IC50 is 60.6 µM.

Q: With CC(C)(O)C[P+](c1ccccc1)(c1ccccc1)c1ccccc1 [AP-7-253] as the compound, how does the IC50 (MRC5 fibroblast cells; [5]) read?
A: The IC50 was > 90 µM.

Q: With C[C@H]1c2cccc(O)c2C(=O)C2=C(O)[C@]3(O)C(=O)C(C(N)=O)=C(O)[C@@H](N(C)C)[C@@H]3[C@@H](O)[C@@H]21 [Doxycycline] as the compound, how does the MIC (Citrobacter freundii; isolate B0271, Clinical isolate) read?
A: Its MIC is 8 µg/mL (≈ 18 µM).

Q: And the MIC (Citrobacter freundii; isolate B0286, AKH Vienna)?
A: Its MIC is 2 µg/mL (≈ 4.5 µM).

Q: What about the MIC (Enterobacter cloacae; isolate D1089, Clinical isolate) of the same compound?
A: Its MIC is > 32 µg/mL.

Q: And the MIC (Enterobacter cloacae; isolate D1090, Clinical isolate)?
A: The MIC was 2 µg/mL (≈ 4.5 µM).

Q: And the MIC (Haemophilus influenzae; ATCC49247, isolate B0035, ATCC 49247)?
A: The MIC was 0.12 µg/mL (≈ 0.27 µM).

Q: What about the MIC (Haemophilus influenzae; isolate B0126, Clinical isolate) of the same compound?
A: The MIC was 0.12 µg/mL (≈ 0.27 µM).

Q: And the MIC (Salmonella typhimurium)?
A: Its MIC is 0.5 µg/mL (≈ 1.13 µM).

Q: And the MIC (Streptococcus pneumoniae; isolate B0078, Clinical isolate)?
A: The MIC was 16 µg/mL (≈ 36 µM).

Q: What about the MIC (Streptococcus pneumoniae; isolate B0415, Clinical isolate) of the same compound?
A: Its MIC is 0.12 µg/mL (≈ 0.27 µM).

Q: And the MIC (Streptococcus agalactiae)?
A: Its MIC is 0.12 µg/mL (≈ 0.27 µM).

Q: And the MIC (Proteus mirabilis; Proteus mirabilis, isolate D1301, Clinical isolate, read-out: MIC)?
A: Its MIC is 32 µg/mL (≈ 72 µM).

Q: And the MIC (Proteus mirabilis; isolate D1300, Clinical isolate)?
A: The MIC was 32 µg/mL (≈ 72 µM).

Q: What about the MIC (Klebsiella pneumoniae; ATCC11228, isolate B0032, ATCC 11228) of the same compound?
A: The MIC was 0.25 µg/mL (≈ 0.563 µM).

Q: What about the MIC (Klebsiella pneumoniae; ATCC29519, isolate D0033, ATCC 29519) of the same compound?
A: The MIC was 1 µg/mL (≈ 2.25 µM).

Q: And the MIC (Klebsiella pneumoniae; ATCC43816, isolate B0305, ATCC 43816)?
A: Its MIC is 1 µg/mL (≈ 2.25 µM).

Q: And the MIC (Acinetobacter baumannii [3]; ATCC15473, isolate B0473, ATCC 15473)?
A: Its MIC is 0.5 µg/mL (≈ 1.13 µM).

Q: And the MIC (Acinetobacter baumannii [3]; isolate B1062, Clinical isolate)?
A: The MIC was ≤ 0.03 µg/mL.

Q: And the MIC (Streptococcus pyogenes)?
A: The MIC was 16 µg/mL (≈ 36 µM).

Q: What about the MIC (Enterococcus faecium) of the same compound?
A: The MIC was 32 µg/mL (≈ 72 µM).

Q: And the MIC (Pseudomonas aeruginosa [4]; ATCC27853, isolate B0015, ATCC 27853)?
A: Its MIC is 16 µg/mL (≈ 36 µM).

Q: And the MIC (Pseudomonas aeruginosa [4]; ATCC29511, isolate B0016, ATCC 29511)?
A: The MIC was 32 µg/mL (≈ 72 µM).

Q: What about the MIC (Pseudomonas aeruginosa [4]; isolate B0367, Clinical isolate) of the same compound?
A: Its MIC is > 32 µg/mL.

Q: And the MIC (Staphylococcus aureus; ATCC49951, isolate B0009, ATCC 49951)?
A: The MIC was 0.12 µg/mL (≈ 0.27 µM).

Q: What about the MIC (Staphylococcus aureus; isolate B0029, Clinical isolate) of the same compound?
A: Its MIC is 8 µg/mL (≈ 18 µM).

Q: And the MIC (Staphylococcus aureus; isolate B1325, Clinical isolates)?
A: The MIC was 4 µg/mL (≈ 9 µM).

Q: What about the MIC (Escherichia coli; ATCC25922, isolate B0001, ATCC 25922, read-out: MIC) of the same compound?
A: Its MIC is 0.5 µg/mL (≈ 1.13 µM).

Q: And the MIC (Escherichia coli; isolate B0159, Efflux pump deficient (ΔtolC))?
A: The MIC was 0.25 µg/mL (≈ 0.563 µM).

Q: What about the MIC (Escherichia coli; isolate B0429, Efflux pump deficient (ΔacrAB)) of the same compound?
A: The MIC was 0.25 µg/mL (≈ 0.563 µM).

Q: And the MIC (Escherichia coli; isolate B1098, Clinical isolate, read-out: MIC)?
A: The MIC was 16 µg/mL (≈ 36 µM).

Q: And the MIC (Escherichia coli; isolate D0120, Clinical isolate, read-out: MIC)?
A: Its MIC is 2 µg/mL (≈ 4.5 µM).

Q: Which IC50 (MRC5 fibroblast cells; [5]) does the source give for CC(C)C[C@H](NC(=O)[C@H](Cc1ccccc1)NC(=O)c1cnccn1)B(O)O [PS-341, bortezomib] here?
A: Its IC50 is 0.007 µM.

Q: And the IC50 (MRC5 fibroblast cells; Table 2, cytotoxicity in MRC5 fibroblast cells)?
A: Its IC50 is 0.0003 µM.

Q: With OCCCCCC[P+](c1ccccc1)(c1ccccc1)c1ccccc1 [AP-5-531] as the compound, how does the IC50 (MRC5 fibroblast cells; [5]) read?
A: Its IC50 is > 90 µM.

Q: Which IC50 (MRC5 fibroblast cells; [5]) does the source give for OCCC[P+](c1ccccc1)(c1ccccc1)c1ccccc1 [AP-7-242] here?
A: Its IC50 is > 90 µM.
